Laboratory results published in patent US8309545B2, “Benzofuran potassium channel blockers and uses thereof” (Bionomics Limited, priority 2006, dated 2012).

Molecular target: T1, human Kv1.3 ion channel (Homo sapiens, UniProt P22001)
T1 construct: Human Jurkat cells (which endogenously express hKv1.3) were used in place of rat L929 cells; endogenous in cells; host or cells: Human Jurkat cells
Assay: Inhibition of Kv1.3 currents, planar patch clamp in Jurkat cells
Type: cell-based
Conditions: Human Jurkat cells (endogenous hKv1.3), averaged dose response data from 3 or more cells
Experimental: Potency of compounds to inhibit the human Kv1.3 ion channel were determined as follows:
EC50 values for inhibition of Kv1.3 currents were determined by the method according to Schmitz et al (2005) Molecular Pharmacology 68, 1254-1270 with the following differences: • 1. Human Jurkat cells (which endogenously express hKv1.3) were used in place of rat L929 cells. • 2. All electrophysiology was performed using planar patch clamp (Port-A-Patch, Nanion Technologies Gmbh, Munich) in contrast to conventional patch clamp. • 3. EC50 values shown were determined from averaged dose response data obtained from 3 or more cells.

T1 sequence (P22001 whole entry): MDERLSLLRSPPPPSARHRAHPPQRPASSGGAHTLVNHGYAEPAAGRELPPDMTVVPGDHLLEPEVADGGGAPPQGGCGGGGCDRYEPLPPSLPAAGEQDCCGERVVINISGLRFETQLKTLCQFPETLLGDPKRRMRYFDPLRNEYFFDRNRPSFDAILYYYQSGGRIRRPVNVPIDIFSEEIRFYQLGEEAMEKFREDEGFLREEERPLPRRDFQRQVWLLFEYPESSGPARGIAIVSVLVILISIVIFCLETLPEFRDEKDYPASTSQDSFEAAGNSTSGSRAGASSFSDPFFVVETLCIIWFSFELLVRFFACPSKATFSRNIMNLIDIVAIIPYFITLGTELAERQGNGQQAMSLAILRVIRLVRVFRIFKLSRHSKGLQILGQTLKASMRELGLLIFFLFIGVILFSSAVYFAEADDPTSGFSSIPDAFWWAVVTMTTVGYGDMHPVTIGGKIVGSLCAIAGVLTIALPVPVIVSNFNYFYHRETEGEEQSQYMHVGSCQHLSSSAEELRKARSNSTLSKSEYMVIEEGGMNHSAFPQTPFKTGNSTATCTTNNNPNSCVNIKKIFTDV

Row | SMILES | EC50 [nM]
1 | CC(=O)c1c(OCCn2ccnn2)c(OCCCc2ccccc2)c2occc2c1C [Example 36, 1-[4-Methyl-7-(3-phenyl-propoxy)-6-(2-[1,2,3]triazol-1-yl-ethoxy)-benzofuran-5-yl]-ethanone] | 122
2 | CC(=O)c1c(OCCn2cncn2)c(OCCCc2ccccc2)c2occc2c1C [Example 37, 1-[4-Methyl-7-(3-phenyl-propoxy)-6-(2-[1,2,4]triazol-1-yl-ethoxy)-benzofuran-5-yl]-ethanone] | 74
3 | CC(=O)c1c(OCCNCCO)c(OCCCc2ccccc2)c2occc2c1C [Example 39, 5-Acetyl-6-(2-(2-Hydroxy-ethylamino)-ethoxy)-4-methyl-7-(3-phenylpropoxy)-benzofuran] | 576
4 | CC(=O)c1c(OCCc2ccccn2)c(OCCCc2ccccc2)c2occc2c1C [Example 40, 5-Acetyl-4-methyl-7-(3-phenylpropoxy)-6-(2-pyridin-2-yl-ethoxy)benzofuran] | 66
5 | CC(=O)c1c(OCCN2CCOCC2)c(OCCCc2ccccc2)c2oc(Cl)cc2c1C [Example 41, 1-[2-Chloro-4-methyl-6-(2-morpholin-4-yl-ethoxy)-7-(3-phenyl-propoxy)-benzofuran-5-yl]-ethanone] | 215
6 | CC(=O)c1c(OCC(=O)N2CCOCC2)c(OCCCc2ccccc2)c2occc2c1C [Example 42, 2-[5-Acetyl-4-methyl-7-(3-phenyl-propoxy)-benzofuran-6-yloxy]-1-morpholin-4-yl-ethanone] | 480
7 | Cc1cc(=O)c2c(C)c3ccoc3c(OCCOc3ccc(F)cc3)c2o1 [Example 43b, 9-[2-(4-Fluoro-phenoxy)-ethoxy]-4,7-dimethyl-furo[3,2-g]chromen-5-one] | 229
8 | CC(=O)c1c(O)c(OCCOc2ccc(F)cc2)c2occc2c1C [Example 43c, 5-Acetyl-7-(2-(4-fluorophenoxy)-ethoxy)-6-hydroxy-4-methylbenzofuran] | 954
9 | CC(=O)c1c(OCCN2CCOCC2)c(OCCOc2ccc(F)cc2)c2occc2c1C [Example 43e, 1-[7-[2-(4-Fluoro-phenoxy)-ethoxy]-4-methyl-6-(2-morpholin-4-yl-ethoxy)-benzofuran-5-yl]-ethanone] | 286
10 | CC(=O)c1c(OCCc2ccccn2)c(OCCC(C)c2ccc(F)cc2)c2occc2c1C (stereo not shown) [Example 44d, 5-Acetyl-7-(3-[4-fluorophenyl]butoxy)-4-methyl-6-(2-pyridin-2-yl-ethoxy)benzofuran] | 22
11 | CC(=O)c1c(OCCNC2CCCC2)c(OCCC(C)c2ccc(F)cc2)c2occc2c1C (stereo not shown) [Example 45b, 5-Acetyl-7-(3-[4-fluorophenyl]butoxy)-4-methyl-6-(2-Cyclopentylamino-ethoxy)benzofuran] | 43
12 | CC(=O)c1c(O)c(OCCCc2ccc(F)cc2)c2occc2c1C [Example 47a, 5-Acetyl-7-(3-(4-fluorophenyl)propoxy)-6-hydroxy-4-methylbenzofuran] | 531
13 | CC(=O)c1c(OCCN2CCOCC2)c(OCCCc2ccc(F)cc2)c2occc2c1C [Example 47b, 5-Acetyl-7-(3-(4-fluorophenyl)propoxy)-4-methyl-6-(2-morpholinoethoxy)benzofuran] | 74
14 | CC(=O)c1c(OCCNC2CCCC2)c(OCCCc2ccc(F)cc2)c2occc2c1C [Example 48, 1-[6-(2-Cyclopentylamino-ethoxy)-4-methyl-7-(3-(4-fluoro-phenyl)-propoxy)-benzofuran-5-yl]-ethanone] | 47
15 | CC(=O)c1c(O)c(OCCC(C)c2ccccc2)c2occc2c1C (stereo not shown) [Example 50a, 1-[6-Hydroxy-4-methyl-7-(3-RS-phenylbutoxy)-benzofuran-5-yl]-ethanone] | 423
16 | CC(=O)c1c(OCCN2CCOCC2)c(OCCC(C)c2ccccc2)c2occc2c1C (stereo not shown) [Example 50b, 1-[4-Methyl-6-(2-morpholin-4-yl-ethoxy)-7-(3-phenyl-butoxy)-benzofuran-5-yl]-ethanone] | 16

Row | SMILES | EC50 [nM]
17 | CC(=O)c1c(OCCN2CCOCC2)c(OCC[C@@H](C)c2ccccc2)c2occc2c1C [Example 51, 1-[4-Methyl-6-(2-morpholin-4-yl-ethoxy)-7-(3-phenyl-butoxy)-benzofuran-5-yl]-ethanone] | 18
18 | CC(=O)c1c(OCCNC2CCCC2)c(OCCC(C)c2ccccc2)c2occc2c1C (stereo not shown) [Example 53, 1-[6-(2-Cyclopentylamino-ethoxy)-4-methyl-7-(3-phenyl-butoxy)-benzofuran-5-yl]-ethanone] | 23
19 | CC(=O)c1c(OCCCC#N)c(OCCCc2ccccc2)c2occc2c1C [Example 54a, 5-Acetyl-6-(3-cyanopropoxy)-4-methyl-7-(3-phenylpropoxy)benzofuran] | 160
20 | CC(=O)c1c(OCCCc2nnn[nH]2)c(OCCCc2ccccc2)c2occc2c1C [Example 54b, 5-Acetyl-6-(3-(1H-tetrazol-5-yl)-propoxy)-4-methyl-7-(3-phenylpropoxy)benzofuran] | 1600
21 | CC(=O)c1c(OCCc2nnn[nH]2)c(OCCCc2ccccc2)c2occc2c1C [Example 55, 5-Acetyl-6-(3-(1H-tetrazol-5-yl)-ethoxy)-4-methyl-7-(3-phenylpropoxy)benzofuran] | 6600
22 | CC(=O)c1c(OCCN2CCOCC2)c(OCC(C)(C)Cc2ccccc2)c2occc2c1C [Example 56b, 5-Acetyl-7-(2,2-dimethyl-3-phenylpropoxy)-4-methyl-6-(2-morpholinoethoxy)benzofuran] | 362
23 | CC(=O)c1c(OCCN2CCOCC2)c(OC(C)CCc2ccccc2)c2occc2c1C (stereo not shown) [Example 57b, 1-[4-Methyl-7-(1-RS-methyl-3-phenyl-propoxy)-6-(2-morpholin-4-yl-ethoxy)-benzofuran-5-yl]-ethanone] | 159
24 | CC(=O)c1c(OCCN2CCOCC2)c(OC[C@H]2C[C@@H]2c2ccccc2)c2occc2c1C [Example 58c, 1-[4-Methyl-6-(2-morpholin-4-yl-ethoxy)-7-(1S,2S-2-phenyl-cyclopropylmethoxy)-benzofuran-5-yl]-ethanone] | 100
25 | CC(=O)c1c(OCCN2CCOCC2)c(OCC#Cc2ccccc2)c2occc2c1C [Example 60c, 1-[4-Methyl-6-(2-morpholin-4-yl-ethoxy)-7-(3-phenyl-prop-2-ynyloxy)-benzofuran-5-yl]-ethanone] | 331
26 | CC(=O)c1c(OCCN2CCOCC2)c(OC/C=C/c2ccccc2)c2occc2c1C [Example 61, 1-[4-Methyl-6-(2-morpholin-4-yl-ethoxy)-7-(E-3-phenyl-allyloxy)-benzofuran-5-yl]-ethanone] | 221
27 | CC(=O)c1c(OCCN2CCOCC2)c(OC[C@H]2O[C@@H]2c2ccccc2)c2occc2c1C [Example 63, 1-[4-Methyl-6-(2-morpholin-4-yl-ethoxy)-7-(2R,3R-3-phenyl-oxiranylmethoxy)-benzofuran-5-yl]-ethanone] | 600
28 | COc1c(C(C)=O)c(O)c(OCCNc2ccccc2)c2occc12 [Example 64c, 1-[6-Hydroxy-4-methoxy-7-(2-phenylamino-ethoxy)-benzofuran-5-yl]-ethanone] | 340
29 | CC(=O)c1c(C)c2c(c(OCCCc3ccccc3)c1OCCN1CCOCC1)OCC2 [Example 65, 5-Acetyl-6-(2-morpholinoethoxy)-4-methyl-7-(3-phenylpropoxy)-2,3-dihydrobenzofuran] | 200
30 | CC(=O)c1c(C)c2c(c(OCCC(C)c3ccc(F)cc3)c1OCCNC1CCCC1)OCC2 (stereo not shown) [Example 67, 1-{6-(2-Cyclopentylamino-ethoxy)-7-[3-RS-(4-fluorophenyl)-butoxy]-4-methyl-2,3-dihydro-benzofuran-5-yl}-ethanone] | 8
31 | CC(=O)c1c(C)c2c(c(CCCCc3ccccc3)c1OCCN1CCOCC1)OCC2 [Example 68, 1-[4-Methyl-6-(2-morpholin-4-yl-ethoxy)-7-(4-phenyl-butyl)-2,3-dihydro-benzofuran-5-yl]-ethanone] | 20
